Measurements from ChEMBL document CHEMBL1201862, “PubChem BioAssay data set” (2004).
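Dose response: 5 concentrations. Exposure: 48 h. Format: 96-well plates. Endpoint: linear interpolation; highest concentration if not reached. GI50 = concentration required for 50% inhibition of growth.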 Calls of active or inactive are those of the source. No stated cut-off is given here; in the data, active = GI50 up to about 1.1 µM and inactive = higher.

Assays:
Assay in all cases: inhibition of tumour cell growth, NCI panel, 48 h
[1] = test system: MDA-N
[2] = test system: A498
[3] = test system: NCI/ADR-RES
[4] = test system: K562
[5] = test system: A549
[6] = test system: SK-MEL-5
[7] = test system: Hs-578T
[8] = test system: HOP-92
[9] = test system: HT-29
[10] = test system: TK-10
[11] = test system: HCC 2998
[12] = test system: SNB-75
[13] = test system: U-251
[14] = test system: UO-31
[15] = test system: SW-620
[16] = test system: IGROV-1
[17] = test system: NCI-H23
[18] = test system: HOP-62
[19] = test system: Malme-3M
[20] = test system: DU-145

In the case of `Cc1cc(C(C)(C)C)c(OCCCN2CCOCC2)c(C(C)(C)C)c1`, the GI50 [1] was 18.1 µM (inactive), the GI50 [2] was 18.9 µM (inactive) and the GI50 [3] was 17 µM (inactive). The GI50 [4] was 16.6 µM (inactive), the GI50 [5] was 17.5 µM (inactive) and the GI50 [6] was 15.9 µM (inactive). The GI50 [7] was 20.7 µM (inactive), the GI50 [8] was 20.4 µM (inactive) and the GI50 [9] was 16.3 µM (inactive). For the same molecule, the GI50 [10] was 19.3 µM (inactive), the GI50 [11] was 16.7 µM (inactive) and the GI50 [12] was 16.7 µM (inactive). For the same molecule, the GI50 [13] was 18 µM (inactive), the GI50 [14] was 18.3 µM (inactive) and the GI50 [15] was 16.9 µM (inactive). For the same molecule, the GI50 [16] was 19.5 µM (inactive), the GI50 [17] was 17.5 µM (inactive) and the GI50 [18] was 19.5 µM (inactive). The GI50 [19] was 20.1 µM (inactive) and the GI50 [20] was 17.1 µM (inactive).
In the case of `CN(C)CCNC(=O)c1cccc2ccc(-c3ccc(O)cc3)nc12`, the GI50 [1] was 2.39 µM (inactive), the GI50 [2] was 2.64 µM (inactive) and the GI50 [3] was 5.11 µM (inactive). For the same molecule, the GI50 [4] was 0.839 µM (active), the GI50 [5] was 0.92 µM (active) and the GI50 [6] was 1.25 µM (inactive). For the same molecule, the GI50 [7] was 2.66 µM (inactive), the GI50 [8] was 3.03 µM (inactive) and the GI50 [9] was 3.13 µM (inactive). For the same molecule, the GI50 [10] was 2.94 µM (inactive), the GI50 [11] was 5.86 µM (inactive) and the GI50 [12] was 2.74 µM (inactive). For the same molecule, the GI50 [13] was 2.06 µM (inactive), the GI50 [14] was 2.39 µM (inactive) and the GI50 [15] was 1.02 µM (active). The GI50 [16] was 2.47 µM (inactive), the GI50 [17] was 3.09 µM (inactive) and the GI50 [18] was 1.47 µM (inactive). For the same molecule, the GI50 [19] was 1.05 µM (active) and the GI50 [20] was 2.33 µM (inactive).
`Nc1nc(O)c2nc3c(nc2n1)C(=O)N(c1ccc(C(=O)O)cc1)C3` was tested, and the GI50 [1] was > 100 µM (inactive), the GI50 [2] was > 100 µM (inactive) and the GI50 [3] was > 100 µM (inactive). The GI50 [4] was > 100 µM (inactive), the GI50 [5] was > 100 µM (inactive) and the GI50 [6] was > 100 µM (inactive). The GI50 [7] was > 100 µM (inactive), the GI50 [8] was > 100 µM (inactive) and the GI50 [9] was > 100 µM (inactive). For the same molecule, the GI50 [10] was > 100 µM (inactive), the GI50 [11] was > 100 µM (inactive) and the GI50 [12] was > 100 µM (inactive). For the same molecule, the GI50 [13] was > 100 µM (inactive), the GI50 [14] was > 100 µM (inactive) and the GI50 [15] was > 100 µM (inactive). The GI50 [16] was > 100 µM (inactive), the GI50 [17] was > 100 µM (inactive) and the GI50 [18] was 29.4 µM (inactive). The GI50 [19] was > 100 µM (inactive) and the GI50 [20] was > 100 µM (inactive).
With `CCN(CC)CCn1c2ccccc2c(=O)c2c(O)ccc(O)c21` the GI50 [1] was 18.7 µM (inactive), the GI50 [2] was 74.3 µM (inactive) and the GI50 [3] was 19.6 µM (inactive). For the same molecule, the GI50 [4] was 15.9 µM (inactive), the GI50 [5] was 83.9 µM (inactive) and the GI50 [6] was 21.3 µM (inactive). The GI50 [7] was 22.1 µM (inactive), the GI50 [8] was 19.4 µM (inactive) and the GI50 [9] was 35.9 µM (inactive). The GI50 [10] was 31.6 µM (inactive), the GI50 [11] was > 41.3 µM (inactive) and the GI50 [12] was 22.3 µM (inactive). The GI50 [13] was 42.1 µM (inactive), the GI50 [14] was 47.4 µM (inactive) and the GI50 [15] was 13.8 µM (inactive). The GI50 [16] was 38.5 µM (inactive), the GI50 [17] was 45.6 µM (inactive) and the GI50 [18] was 50.5 µM (inactive). The GI50 [19] was 24.7 µM (inactive) and the GI50 [20] was > 59.4 µM (inactive).
With `CCOC(=O)/C(C#N)=C/c1ccc2c(c1)CC1(C2)Cc2cc(CC)c(C(C)O)cc2C1` (stereo not given) the GI50 [1] was 2.21 µM (inactive), the GI50 [2] was 25.8 µM (inactive) and the GI50 [3] was 8.77 µM (inactive). The GI50 [4] was 4.31 µM (inactive), the GI50 [5] was 44.1 µM (inactive) and the GI50 [6] was 4.78 µM (inactive). The GI50 [7] was 10 µM (inactive), the GI50 [8] was 16.5 µM (inactive) and the GI50 [9] was 19.1 µM (inactive). For the same molecule, the GI50 [10] was 25.5 µM (inactive), the GI50 [11] was 16.3 µM (inactive) and the GI50 [12] was 8.38 µM (inactive). The GI50 [13] was 6.35 µM (inactive), the GI50 [14] was 21.4 µM (inactive) and the GI50 [15] was 5.38 µM (inactive). The GI50 [16] was 23 µM (inactive), the GI50 [17] was 13.5 µM (inactive) and the GI50 [18] was 14.2 µM (inactive). The GI50 [19] was 6.11 µM (inactive) and the GI50 [20] was 19.2 µM (inactive).
With `CC(=O)c1c2c(c3ccccc3c1O)O[C@@H]1OCC[C@H]21` the GI50 [1] was > 100 µM (inactive), the GI50 [2] was > 100 µM (inactive) and the GI50 [3] was > 100 µM (inactive). The GI50 [4] was > 100 µM (inactive), the GI50 [5] was > 100 µM (inactive) and the GI50 [6] was > 100 µM (inactive). The GI50 [7] was > 100 µM (inactive), the GI50 [8] was > 100 µM (inactive) and the GI50 [9] was > 100 µM (inactive). The GI50 [10] was > 100 µM (inactive), the GI50 [11] was > 100 µM (inactive) and the GI50 [12] was 11.5 µM (inactive). The GI50 [13] was > 100 µM (inactive), the GI50 [14] was > 100 µM (inactive) and the GI50 [15] was > 100 µM (inactive). The GI50 [16] was > 100 µM (inactive), the GI50 [17] was > 100 µM (inactive) and the GI50 [18] was > 100 µM (inactive). For the same molecule, the GI50 [19] was > 100 µM (inactive) and the GI50 [20] was > 100 µM (inactive).
`CCCCC1Cc2cc(O)ccc2-c2n1c1cc(O)ccc1[n+]2C.CCCCC1Cc2cc(O)ccc2-c2n1c1ccc(O)cc1[n+]2C` (stereo not given) was tested, and the GI50 [1] was 26.8 µM (inactive), the GI50 [2] was 31.9 µM (inactive) and the GI50 [3] was > 100 µM (inactive). For the same molecule, the GI50 [4] was 17.7 µM (inactive), the GI50 [5] was 22.9 µM (inactive) and the GI50 [6] was 4.05 µM (inactive). The GI50 [7] was 5.47 µM (inactive), the GI50 [8] was 9.55 µM (inactive) and the GI50 [9] was 41.7 µM (inactive). The GI50 [10] was 22.1 µM (inactive), the GI50 [11] was 28.2 µM (inactive) and the GI50 [12] was 12.7 µM (inactive). The GI50 [13] was 1.1 µM (active), the GI50 [14] was 65.6 µM (inactive) and the GI50 [15] was 32.2 µM (inactive). For the same molecule, the GI50 [16] was 25.9 µM (inactive), the GI50 [17] was 2.59 µM (inactive) and the GI50 [18] was 43.8 µM (inactive). The GI50 [19] was 19.5 µM (inactive) and the GI50 [20] was 78.7 µM (inactive).
With `Nc1ncnc2oc(C3OC(COC(=O)c4ccccc4)C(OC(=O)c4ccccc4)C3OC(=O)c3ccccc3)nc12` (stereo not given) the GI50 [1] was > 100 µM (inactive), the GI50 [2] was 14.8 µM (inactive) and the GI50 [3] was > 100 µM (inactive). The GI50 [4] was > 100 µM (inactive), the GI50 [5] was > 100 µM (inactive) and the GI50 [6] was > 100 µM (inactive). The GI50 [7] was 49.2 µM (inactive), the GI50 [8] was > 100 µM (inactive) and the GI50 [9] was > 100 µM (inactive). The GI50 [10] was > 100 µM (inactive), the GI50 [11] was > 100 µM (inactive) and the GI50 [12] was 29.2 µM (inactive). The GI50 [13] was > 100 µM (inactive), the GI50 [14] was > 100 µM (inactive) and the GI50 [15] was > 100 µM (inactive). For the same molecule, the GI50 [16] was > 100 µM (inactive), the GI50 [17] was > 100 µM (inactive) and the GI50 [18] was > 100 µM (inactive). For the same molecule, the GI50 [19] was 96.2 µM (inactive) and the GI50 [20] was > 100 µM (inactive).
For `COc1cc2ccc1OCc1cccc(n1)COc1ccc(cc1OC)/C=N\CCNCC/N=C\2`, the GI50 [1] was > 100 µM (inactive), the GI50 [2] was > 100 µM (inactive) and the GI50 [3] was > 100 µM (inactive). The GI50 [4] was > 100 µM (inactive), the GI50 [5] was > 100 µM (inactive) and the GI50 [6] was > 100 µM (inactive). For the same molecule, the GI50 [7] was 35.4 µM (inactive), the GI50 [8] was 48.4 µM (inactive) and the GI50 [9] was > 100 µM (inactive). The GI50 [10] was > 100 µM (inactive), the GI50 [11] was > 100 µM (inactive) and the GI50 [12] was 30.5 µM (inactive). The GI50 [13] was 33.2 µM (inactive), the GI50 [14] was > 100 µM (inactive) and the GI50 [15] was > 100 µM (inactive). The GI50 [16] was > 100 µM (inactive), the GI50 [17] was > 100 µM (inactive) and the GI50 [18] was > 100 µM (inactive). For the same molecule, the GI50 [19] was > 100 µM (inactive) and the GI50 [20] was > 100 µM (inactive).
In the case of `O=C(OC(/C=C/c1ccccc1)P1(=O)N(Cc2ccccc2)[C@@H]2CCCC[C@H]2N1Cc1ccccc1)c1ccccc1` (stereo not given in full), the GI50 [1] was 3.8 µM (inactive), the GI50 [2] was 5.73 µM (inactive) and the GI50 [3] was 2.74 µM (inactive). For the same molecule, the GI50 [4] was 3.37 µM (inactive), the GI50 [5] was 3.94 µM (inactive) and the GI50 [6] was 3.14 µM (inactive). The GI50 [7] was 6.67 µM (inactive), the GI50 [8] was 2.08 µM (inactive) and the GI50 [9] was 3.4 µM (inactive). For the same molecule, the GI50 [10] was 4.82 µM (inactive), the GI50 [11] was 4.9 µM (inactive) and the GI50 [12] was 3.18 µM (inactive). The GI50 [13] was 3.79 µM (inactive), the GI50 [14] was 3.34 µM (inactive) and the GI50 [15] was 4.57 µM (inactive). For the same molecule, the GI50 [16] was 2.9 µM (inactive), the GI50 [17] was 3.09 µM (inactive) and the GI50 [18] was 5.38 µM (inactive). The GI50 [19] was 3.54 µM (inactive) and the GI50 [20] was 6.75 µM (inactive).
